Entries after “also recorded” stand apart in the source; their conditions may differ. Where no end group is shown, it is not given here.
Columns and labels:
Tie2 receptor [1] = target: T1, Tie2 receptor (Homo sapiens, UniProt Q02763); experiment: Tie2 phosphorylation ELISA in HUVEC; assay type: cell-based; settings: 15 minute stimulation
T1 construct: endogenous in cells; host or cells: HUVEC; HMVEC-tert (human dermal microvascular endothelial cells immortalized with telomerase)
Experimental: Human umbilical vein endothelial cells (HUVECs) were seeded on 100 mm tissue culture plates in complete endothelial basal media (EBM)(Lonza) supplemented with ‘EGM single quots’ (Lonza) in 20% O2, 5% CO2 and 37° C. humidified chamber according to manufacturer's recommendations. […] Following the 15 minute stimulation, cells were placed on ice and washed twice in ice cold PBS. Cell lysates were prepared for use in 1C12 lysis buffer (1% NP-40, 20 mM Tris (pH 8.0), 137 mM NaCl, 10% Glycerol, 2 mM EDTA, 1 mM activated sodium orthovanadate). BCA protein concentration kit was used to measure protein concentration of each lysate as per manufacturer's instructions (Thermo Scientific). Samples were subjected to ELISAs that measured phosphorylated Tie2 and total Tie2 levels according to the manufacturers protocol. 20 μg or 5 μg of protein from each sample was loaded in duplicate for phosphorylated Tie2 and total Tie2 readings respectively. Phosphorylated Tie2:total Tie2 ratios were determined for each sample. The level of Tie2 phosphorylation for all treatment groups were then normalized to that of the no treatment group (NT, complete EBM only) in each experiment.

HUVEC [2] = experiment: Thrombin- and TNF-α-induced HUVEC destabilisation, impedance (xCELLigence RTCA); assay type: cell-based, human; settings: for total AUC normalised to vehicle control treatment: equivalent to CI for vehicle control cells
Tie2 receptor [3] = target: T2, Tie2 receptor (Mus musculus, UniProt Q02858); experiment: Tie2 phosphorylation ELISA in primary mouse lung microvascular endothelial cells (MLMVEC); assay type: cell-based
T2 construct: host or cells: primary mouse lung microvascular endothelial cells (MLMVEC)
Experimental: Primary mouse lung endothelial cells (Cell Biologics) were seeded on 100 mm tissue culture plates in complete endothelial basal media (EBM)(Lonza) supplemented with ‘EGM single quots’ (Lonza). […] Following the 15 minute stimulation, cells were placed on ice and washed twice in ice cold PBS. Cell lysates were prepared for use in IC12 lysis buffer (1% NP-40, 20 mM Tris (pH 8.0), 137 mM NaCl, 10% Glycerol, 2 mM EDTA, 1 mM activated sodium orthovanadate). BCA protein concentration kit was used to measure protein concentration of each lysate as per manufacturer's instructions (Thermo Scientific). Samples were subjected to ELISAs that measured phosphorylated Tie2 and total Tie2 levels according to the manufacturer's protocol (mouse Tie2, R&D Systems). 50 μg or 5 μg of protein from each sample was loaded in triplicate for phosphorylated Tie2 and total Tie2 readings respectively. Phosphorylated Tie2:total Tie2 ratios were determined for each sample. The level of Tie2 phosphorylation for all treatment groups was then normalized to that of the no treatment group (NT, complete EBM only) in each experiment.

HUVEC [4] = experiment: COVID-19 patient serum induced HUVEC integrity destabilization, impedance (xCELLigence RTCA); assay type: cell-based, human
[5] = Pharmacokinetic analysis after intravenous bolus in rats (plasma ELISA); assay type: in vivo, male Sprague Dawley rats
Experimental: Indicated amounts (ug/kg) of parental Vasculotide and MPA-Br were intravenously administered via bolus injection to male Sprague Dawley rats. […] The 120 ug/kg dose provided the greatest sensitivity of detection in these studies and as such, PK measures presented pertain to this particular dose level. […] MPA-Br PK was evaluated in a multi-dose (MD) intravenous setting at 120 ug/kg once every 24 hours for three consecutive days.

MAPK (Erk2) = experiment: MAPK phosphorylation ELISA in HUVEC; assay type: cell-based, human; settings: HUVEC stimulation
Experimental: HUVECs were cultured as above. Lyates were prepared in (1 mM EDTA, 0.5% Triton X-100, 6M urea, 5 mM NaF, 100 uM PMSF, 25 mM sodium pyrophosphate, 1 mM sodium orthovanadate, pH 7.2-7.4, 1× cOmplete™ mini EDTA-free protease inhibitor). BCA protein concentration kit was used to measure protein concentration of each lysate as per manufacturer's instructions (Thermo Scientific). Samples were subjected to ELISAs that measured phosphorylated MAPK and total MAPK levels according to the manufacturer's protocol (R&D Systems). 20 μg or 10 μg of protein from each sample was loaded in duplicate for phosphorylated MAPK and total MAPK readings respectively. Phosphorylated MAPK:total MAPK ratios were determined for each sample. The level of MAPK phosphorylation for all treatment groups were then normalized to that of the no treatment group (NT, EBM only) in each experiment.

[6] = tested on: Influenza A virus HKx31 (H3N2); assay type: in vivo, C57BL/6J mice; settings: for overall survival of infected mice: ip
[7] = tested on: histamine-induced vascular leakage; experiment: Cutaneous histamine challenge, Evans blue dye extravasation; assay type: in vivo, male FVB mice; settings: for vascular leakage (extravassation of Evans blue dye) vs vehicle treated mice: prophylactic IP dose one hour prior to cutaneous histamine challenge
Description: 10-week old male FVB mice were purchased from Jackson Laboratories. Mice were housed in a Vivarium on a standard light:dark cycle and were given free access to food and water. On day 0 mice were anesthetized with isoflurane and the entire dorsal area was shaved with an electric shaver. Residual hair was removed via application of depilatory cream. Residual cream was removed with sterile gauze and water. […] Immediately following Evans blue dye administration, and while still under anesthesia, a single PBS injection (dorsal, intradermal, 50 ul) and three equally spaced histamine injections (dorsal, intradermal, 1.25 ug contained in 50 ul) were applied. Once the intradermal injections were complete, the mice were removed from anesthesia and were placed back into their housing cages for 25 minutes.
Cardiac transperfusion After 25 minutes of exposure to histamine the mice were placed under anesthesia with an appropriate volume of 2.5% avertin (100 ul/10 g body weight via intraperitoneal injection). Once a deep plane of anesthesia was produced the mice were place and secured in a supine position, the chest was surgically opened, the heart was exposed and a catheter terminating in a 23 gauge needle was inserted into the left ventricle. Once the catheter was securely in place, a cut in the right atria was performed and 25 ml of cold PBS was delivered, via the catheter at 100 mmHg to flush out all intravascular Evans blue dye. Once a mouse was effectively perfused the dorsal skin was surgically removed. Four, 12 mm skin biopsies were collected (1PBS, 3 histamine) for each mouse using a standardized skin punch. In all cases, the biopsy that received PBS served as a baseline control for that individual mouse.
Quantification of Evans blue dye extravassation Skin biopsies were placed in labelled tubes and placed in a 60 degree Celsius oven for 16 hrs to removed all moisture. […] An Evans blue dye standard curve encompassing high and low experimental data points was constructed such that the amount of Evans blue dye extravassation (ug/g of skin) could be calculated.

recombinant human IgG Fc = target: T3, recombinant human IgG Fc (Homo sapiens, UniProt P01857); experiment: Tryptophan fluorescence spectroscopy binding to human IgG Fc (negative control); settings: increasing ligand concentrations
T3 construct: purchased R&D Systems
Description: Ligand and receptor interaction. […] Data was compiled using SoftMax and analyzed using Prism.

[8] = tested on: Influenza A virus HKx31 (H3N2); settings: 100 ng/mouse/day; Sugiyama M G et al, 2015; cited from earlier work
Tie2 receptor [9] = experiment: Tie2 phosphorylation ELISA in primary cynomolgus monkey glomerular endothelial cells; assay type: cell-based; settings: positive control
Experimental: Primary cynomolgus monkey glomerular endothelial cells (Cell Biologics) were cultured according to details provided above for HMVEC^tert. Tie2 activation studies performed on primary cynomolgus monkey glomerular endothelial cells were performed according to approaches detailed above for the rat primary glomerular endothelial cell studies.

Tie2 receptor [10] = target: T4, Tie2 receptor (Rattus norvegicus, UniProt A0A8I5ZW61); experiment: Tie2 phosphorylation ELISA in primary rat glomerular endothelial cells; assay type: cell-based; settings: positive control
T4 construct: host or cells: primary rat glomerular endothelial cells
Experimental: Rat primary glomerular endothelial cells (Cell Biologics) were grown in Complete rat endothelial cell medium/w kit (Cell Biologics) in 20% O2, 5% CO2 and 37° C. humidified chamber and split 1:3 once reaching 80-90% confluency. To examine the activation of Tie2 by MPA-Br in rat kidney glomerular endothelial cells, 95-100% confluent cells were stimulated with indicated concentrations of the test agent in serum-containing media for 15 minutes. Human Ang-1 (R&D Systems) was used as positive control. Cell lysates were collected using lysis buffer IC12 (detailed above) recommended in Human phospho-Tie-2 ELISA kit (R&D Systems), tyrosine-phosphorylated Tie2 and total Tie2 were measured using ELISA (Human phospho-Tie2 and total-Tie2 ELISA kits, R&D Systems) with substitution of capture antibody validated for rat Tie2. Mouse anti-Tie2 antibody (BD Pharmingen™) and rabbit TEK polyclonal antibody (MyBioSource) were used as capture antibody in pTie2 and total Tie2 ELISA, respectively. The level of Tie2 phosphorylation for all treatment groups was then normalized to that of the no treatment group (NT, complete rat endothelial cell medium) in each experiment.

Tie2 receptor [11] = experiment: Tie2 phosphorylation ELISA in primary canine aortic endothelial cells; assay type: cell-based; settings: positive control
Experimental: Canine primary aortic endothelial cells (Cell Biologics) were grown in Complete canine endothelial cell medium/w kit (Cell Biologics) in 20% O2, 5% CO2 and 37° C. humidified chamber and split 1:3 once reaching 80-90% confluency. Tie2 activation studies performed on primary cynomolgus monkey glomerular endothelial cells were performed according to approaches detailed above for the rat primary glomerular endothelial cell studies.

[12] = 120 ug/kg intravenous bolus, parental Vasculotide vs MPA-Br
[13] = day 6, MPA-Br 200 ng/day vs parental Vasculotide 500 ng

T4 sequence (A0A8I5ZW61 20-1121): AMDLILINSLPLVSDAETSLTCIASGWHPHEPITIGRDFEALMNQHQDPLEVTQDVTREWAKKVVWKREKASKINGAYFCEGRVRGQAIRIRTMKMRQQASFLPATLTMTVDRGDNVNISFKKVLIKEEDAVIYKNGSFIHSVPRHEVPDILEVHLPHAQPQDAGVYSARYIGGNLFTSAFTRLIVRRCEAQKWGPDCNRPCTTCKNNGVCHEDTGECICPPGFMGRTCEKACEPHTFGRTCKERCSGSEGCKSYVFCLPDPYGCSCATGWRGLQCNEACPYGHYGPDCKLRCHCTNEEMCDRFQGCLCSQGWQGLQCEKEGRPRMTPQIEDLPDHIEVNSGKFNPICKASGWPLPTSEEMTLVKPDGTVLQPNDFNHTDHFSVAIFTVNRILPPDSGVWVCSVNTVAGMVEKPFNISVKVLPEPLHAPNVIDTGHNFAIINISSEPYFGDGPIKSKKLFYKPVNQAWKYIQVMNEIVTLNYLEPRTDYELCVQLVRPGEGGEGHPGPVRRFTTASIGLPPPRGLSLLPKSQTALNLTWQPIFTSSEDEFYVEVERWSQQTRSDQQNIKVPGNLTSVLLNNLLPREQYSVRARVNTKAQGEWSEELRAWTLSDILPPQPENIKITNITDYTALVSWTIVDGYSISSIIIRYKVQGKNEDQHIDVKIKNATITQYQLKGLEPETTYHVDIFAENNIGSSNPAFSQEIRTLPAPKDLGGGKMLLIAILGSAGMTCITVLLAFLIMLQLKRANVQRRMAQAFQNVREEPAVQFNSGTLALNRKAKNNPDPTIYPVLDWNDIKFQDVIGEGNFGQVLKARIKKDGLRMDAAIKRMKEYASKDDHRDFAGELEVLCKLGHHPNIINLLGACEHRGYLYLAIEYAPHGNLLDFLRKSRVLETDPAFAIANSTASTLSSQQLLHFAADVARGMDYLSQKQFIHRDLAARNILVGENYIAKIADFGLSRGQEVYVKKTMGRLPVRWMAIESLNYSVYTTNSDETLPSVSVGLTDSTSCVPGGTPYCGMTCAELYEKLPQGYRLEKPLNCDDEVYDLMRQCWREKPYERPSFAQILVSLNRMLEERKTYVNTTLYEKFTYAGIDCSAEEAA
T2 sequence (Q02858 23-1122): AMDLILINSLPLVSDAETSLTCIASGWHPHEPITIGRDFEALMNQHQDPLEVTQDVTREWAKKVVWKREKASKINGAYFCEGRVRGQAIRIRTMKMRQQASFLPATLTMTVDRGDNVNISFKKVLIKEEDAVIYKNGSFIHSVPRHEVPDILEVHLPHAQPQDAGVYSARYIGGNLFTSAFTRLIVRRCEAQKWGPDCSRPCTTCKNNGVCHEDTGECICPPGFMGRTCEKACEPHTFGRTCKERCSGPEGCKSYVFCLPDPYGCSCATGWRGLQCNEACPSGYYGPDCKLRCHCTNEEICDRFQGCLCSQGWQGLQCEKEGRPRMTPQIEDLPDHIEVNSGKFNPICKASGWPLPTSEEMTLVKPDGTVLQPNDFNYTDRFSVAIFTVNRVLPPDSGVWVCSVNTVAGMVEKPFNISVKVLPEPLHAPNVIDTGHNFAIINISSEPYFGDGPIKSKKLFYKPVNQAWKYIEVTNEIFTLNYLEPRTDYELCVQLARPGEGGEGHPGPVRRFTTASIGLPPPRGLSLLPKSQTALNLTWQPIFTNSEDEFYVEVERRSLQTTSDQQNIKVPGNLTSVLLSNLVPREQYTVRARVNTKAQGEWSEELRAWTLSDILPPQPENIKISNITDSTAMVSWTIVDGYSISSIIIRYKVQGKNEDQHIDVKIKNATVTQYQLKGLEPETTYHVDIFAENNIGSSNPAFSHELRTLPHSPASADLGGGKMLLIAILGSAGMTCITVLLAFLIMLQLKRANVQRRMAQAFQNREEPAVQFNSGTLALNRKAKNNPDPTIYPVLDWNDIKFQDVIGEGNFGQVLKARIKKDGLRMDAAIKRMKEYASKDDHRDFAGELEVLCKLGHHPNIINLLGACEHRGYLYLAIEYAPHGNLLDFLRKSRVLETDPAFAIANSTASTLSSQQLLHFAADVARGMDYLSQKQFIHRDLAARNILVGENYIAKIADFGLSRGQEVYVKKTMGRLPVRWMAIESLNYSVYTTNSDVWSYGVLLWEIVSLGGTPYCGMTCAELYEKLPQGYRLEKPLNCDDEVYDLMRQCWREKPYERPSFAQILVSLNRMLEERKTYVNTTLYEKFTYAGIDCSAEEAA
T1 sequence (Q02763 23-1124): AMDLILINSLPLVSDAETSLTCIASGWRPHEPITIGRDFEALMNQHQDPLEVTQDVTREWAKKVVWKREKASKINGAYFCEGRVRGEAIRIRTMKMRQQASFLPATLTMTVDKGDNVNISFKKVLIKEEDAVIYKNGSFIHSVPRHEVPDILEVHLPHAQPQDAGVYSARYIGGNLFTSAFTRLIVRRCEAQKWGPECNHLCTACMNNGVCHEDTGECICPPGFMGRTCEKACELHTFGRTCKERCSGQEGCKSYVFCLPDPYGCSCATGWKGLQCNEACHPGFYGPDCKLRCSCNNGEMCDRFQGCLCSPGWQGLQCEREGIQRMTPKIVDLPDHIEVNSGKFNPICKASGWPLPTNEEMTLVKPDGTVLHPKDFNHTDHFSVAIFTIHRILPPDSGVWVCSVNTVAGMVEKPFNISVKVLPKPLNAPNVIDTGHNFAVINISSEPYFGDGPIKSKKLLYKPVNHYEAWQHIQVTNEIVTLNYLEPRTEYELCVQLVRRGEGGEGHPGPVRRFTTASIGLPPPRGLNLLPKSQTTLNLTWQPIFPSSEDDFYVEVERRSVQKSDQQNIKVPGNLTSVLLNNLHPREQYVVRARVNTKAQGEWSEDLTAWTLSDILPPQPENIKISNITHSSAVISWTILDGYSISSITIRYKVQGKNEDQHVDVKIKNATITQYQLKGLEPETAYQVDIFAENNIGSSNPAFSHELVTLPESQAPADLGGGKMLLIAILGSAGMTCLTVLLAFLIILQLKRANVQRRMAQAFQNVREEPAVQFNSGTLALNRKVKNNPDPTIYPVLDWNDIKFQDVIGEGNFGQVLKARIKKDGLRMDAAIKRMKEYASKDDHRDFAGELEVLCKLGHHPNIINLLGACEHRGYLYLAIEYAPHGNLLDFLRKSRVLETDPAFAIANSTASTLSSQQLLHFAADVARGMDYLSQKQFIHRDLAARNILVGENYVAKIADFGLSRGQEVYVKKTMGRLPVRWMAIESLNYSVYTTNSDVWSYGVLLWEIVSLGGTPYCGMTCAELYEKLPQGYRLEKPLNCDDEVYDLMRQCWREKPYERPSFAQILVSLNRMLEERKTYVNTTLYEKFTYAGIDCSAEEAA

## MPA-Br: T7 peptide linked via 3-mercaptopropionic acid to a bromoacetimide-activated 10K PEG tetramer through a linear sulfane moiety (HHHRHSF; not fully specified (N-terminus); also: linked via 3-mercaptopropionic acid to bromoacetimide-activated 10K PEG tetramer (sulfane), site not given here)
Tie2 receptor [1]
  doses significantly activating Tie2 (pTie2/total Tie2 vs no treatment): 10-100 ng
HUVEC [2]; TNF-a challenge (0.5 ng/mL), MPA-Br 5 ng/mL
  normalized CI overtime compared to untreated HUVEC: significant increase in normalized CI
HUVEC [2]; TNF-a challenged cells, MPA-Br 5 ng/mL
  total AUC normalised to vehicle control treatment: statistically significant increase in normalized CI
HUVEC [2]; thrombin challenge (0.25 ng/mL), MPA-Br 0.5 to 5 ng/mL
  normalized CI overtime compared to untreated HUVEC: significant increase in normalized CI
HUVEC [2]; thrombin challenged cells, MPA-Br 0.5 to 5 ng/mL
  total AUC normalised to vehicle control treatment: statistically significant increase in normalized CI
Tie2 receptor [3]
  fold lower concentration for statistically significant Tie2 activation vs parental Vasculotide: 10 fold
HUVEC [4]
  CI over time after COVID-19 serum challenge: restoration of CI loss
HUVEC [4]; COVID-19 patient sample IgM, 0.5 to 5 ng/mL MPA-Br
  AUC normalised to vehicle control: statistically significant increase in normalized CI
HUVEC [4]; COVID-19 serum (IgG8, IgM5, IgM6) compared to HD
  cell index difference between cells incubated with serum+AV-001 and serum+vehicle control: Significant differences
HUVEC [4]; COVID-19 serum IgG8 and IgM6 (FIG. 10D-E), both AV-001 doses
  total AUC normalised to vehicle control treatment: statistically significant increase in CI
HUVEC [4]; serum HD1, high dose 5 ng/mL
  total AUC normalised to vehicle control treatment: statistically significant increase in normalised cell impedance
[5]; 120 ug/kg IV once every 24 hours for three consecutive days
  drug accumulation, multi-dose (MD) PK vs single dose: no drug accumulation
[5]; [12]
  clearance rate: similar
  volume of distribution: similar
MAPK (Erk2)
  activation of MAPK (phosphorylated MAPK:total MAPK): downstream activation of MAPK
[6]; [13]
  arterial oxygenation: superiority to parental Vasculotide
  protection from wasting (fraction of initial body weight): superiority to parental Vasculotide
[6]; mouse, in vivo
  activity score: significantly improved
  all study endpoints compared to parental Vasculotide: performed equal, or better than parental Vasculotide
  lung oxygenation (SpO2): significantly improved
  thermal regulation (body temperature): significantly improved
  overall survival of infected mice: significantly improved overall survival
[7]
  vascular leakage (extravassation of Evans blue dye) vs vehicle treated mice: significantly less vascular leakage
Recombinant human IgG Fc
  binding to recombinant human IgG Fc (fluorescence intensity): no dose dependent increase in fluorescence intensity; also recorded: No saturation of binding

## parental Vasculotide: 10 kDa 4-armed polyethylene glycol with Tie2 binding peptides (CHHHRHSF) attached via maleimide; mimics Ang1 [reference compound]
MAPK (Erk2)
  activation of MAPK (phosphorylated MAPK:total MAPK): downstream activation of MAPK
[8]
  survival following infection with X31 influenza: ineffective at enhancing survival
[6]; mouse, in vivo
  activity score: significantly improved
  lung oxygenation (SpO2): significantly improved
  thermal regulation (body temperature): significantly improved
  overall survival of infected mice: significantly improved overall survival
[7]; parental Vasculotide 500 ng/mouse vs MPA-Br at equal dose or 125 ng/mouse
  reduction of histamine-induced vascular leakage compared with MPA-Br: performed less well
[7]
  vascular leakage (extravassation of Evans blue dye) vs vehicle treated mice: significantly less vascular leakage

B1: human recombinant Ang1: Human recombinant angiopoietin 1, positive control for Tie2 and MAPK activation (protein)
chain: SNQRRSPENSGRRYNRIQHGQCAYTFILPEHDGNCRESTTDQYNTNALQRDAPHVEPDFSSQKLQHLEHVMENYTQWLQKLENYIVENMKSEMAQIQQNAVQNHTATMLEIGTSLLSQTAEQTRKLTDVETQVLNQTSRLEIQLLENSLSTYKLEKQLLQQTNEILKIHEKNSLLEHKILEMEGKHKEELDTLKEEKENLQGLVTRQTYIIQELEKQLNRATTNNSVLQKQQLELMDTVHNLVNLCTKEGVLLKGGKREEEKPFRDCADVYQAGFNKSGIYTIYINNMPEPKKVFCNMDVNGGGWTVIQHREDGSLDFQRGWKEYKMGFGNPSGEYWLGNEFIFAITSQRQYMLRIELMDWEGNRAYSQYDRFHIGNEKQNYRLYLKGHTGTAGKQSSLILHGADFSTKDADNDNCMCKCALMLTGGWWFDACGPSNLNGMFYTAGQNHGKLNGIKWHYFKGPSYSLRSTTMMIRPLDF
Tie2 receptor [9]
  Tie2 phosphorylation compared to no treatment (NT): significant increase in baseline Tie2 phosphorylation
Tie2 receptor [10]
  Tie2 phosphorylation compared to no treatment (NT): significant increase in baseline Tie2 phosphorylation
Tie2 receptor [11]
  Tie2 phosphorylation compared to no treatment (NT): significant increase in baseline Tie2 phosphorylation

From patent US20250345387A1, “CORONAVIRUS THERAPEUTICS AND TREATMENT METHODS” (priority 2020, published 2025)
